This passage reports insect mortality rate results from patent publication US8222420B2, “Nitrogen-containing compounds and harmful organism control agents” (Nippon Soda Co., Ltd., priority 2009, dated 2012).

In series [1] the test system is Tetranychus urticae resistant to organic phosphorous agents. The experiment in a line: Efficacy against Tetranychus urticae (spray on kidney bean plants). The format is in vivo. To be noted: 500 ppm wettable powder sprayed on kidney bean plants with female adults; 25° C., humidity 65%; 3 days later. The text has this: After inoculating the first true leaves of kidney bean plants planted in a no. 3 pot for which 7 to 10 days had elapsed since germination with 17 female adult Tetranychus urticae resistant to organic phosphorous agents, a chemical liquid diluted with water to a compound concentration of 500 ppm was sprayed onto the kidney bean plants in accordance with the formula of the wettable powder indicated in the aforementioned Preparation Example 1. The kidney bean plants were placed in a constant temperature chamber at a temperature of 25° C. and humidity of 65% and insect mortality rate was investigated 3 days later. The test was repeated twice.

A further series relates to Aphis gossypii. The experiment in a line: Efficacy against Aphis gossypii (spray on infested cucumber plants). The format is in vivo. The settings on record: 500 ppm emulsion sprayed on cucumber plants infested with nymphs; 25° C., humidity 65%; 5 days later. The text has this:
Cucumber plants planted in a no. 3 pot for which 10 days had elapsed since germination were inoculated with adult Aphis gossypii. The adult insects were removed after 1 day, and a chemical liquid diluted with water to a compound concentration of 500 ppm was sprayed onto the cucumber plants infested with nymphs laid by the adults in accordance with the emulsion formula indicated in the aforementioned Preparation Example 2. The cucumber plants were placed in a constant temperature chamber at a temperature of 25° C. and humidity of 65% and insect viability was investigated 5 days later followed by determination of insect mortality rate. The test was repeated twice.

For the molecule `Cc1cc(Cl)ccc1N=CN(C)C` [chlordimeform], in series [1], the insect mortality rate amounted to 40%.

`Cc1nc(N(C)C)nc(OC(=O)N(C)C)c1C` [pirimicarb] showed an insect mortality rate in the series with Aphis gossypii of 9%.
